According to the supplement of paper PMC12370961:

Tests used:
Test in all cases: differential drug sensitivity score (dDSS) relative to sarcoma reference cohort mean DSS (DSS units (0-100 scale difference)); higher = more selective sensitivity than reference sarcomas
Details in all cases: exposure time: 72 h; concentration range: 10-10000 nM
[1] = system: CDS-ZH001 (patient-derived CIC-DUX4 sarcoma tumoroid)
Experimental: (§1)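 Drug response profiling of patient-derived Ewing sarcoma and CIC::DUX4 sarcoma tumoroid models (or cells tested directly after isolation from the tumor, 'direct'). The DSS is the normalised AUC (0-100); dDSS is the sample DSS minus the mean DSS of a 34-sarcoma reference cohort profiled in the same lab.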

[2] = system: ES-ZH008 (patient-derived Ewing sarcoma tumoroid)
Experimental: as §1

[3] = system: CDS-ZH003 (patient-derived CIC-DUX4 sarcoma tumoroid)
Experimental: as §1

[4] = system: CDS-ZH002 (patient-derived CIC-DUX4 sarcoma tumoroid)
Experimental: as §1

[5] = system: ES-ZH002 (patient-derived Ewing sarcoma tumoroid)
Experimental: as §1

[6] = system: ES-ZH016 direct (Ewing sarcoma cells right after isolation)
Experimental: as §1

[7] = system: CDS-ZH002 direct (CIC-DUX4 sarcoma cells right after isolation)
Experimental: as §1

[8] = system: ES-ZH001 (patient-derived Ewing sarcoma tumoroid)
Experimental: as §1

[9] = system: ES-ZH016 (patient-derived Ewing sarcoma tumoroid)
Experimental: as §1

[10] = system: ES-ZH007 (patient-derived Ewing sarcoma tumoroid)
Experimental: as §1

[11] = system: CDS-ZH001-2 (patient-derived CIC-DUX4 sarcoma tumoroid)
Experimental: as §1

[12] = system: ES-ZH009 (patient-derived Ewing sarcoma tumoroid)
Experimental: as §1

[13] = system: ES-ZH004 (patient-derived Ewing sarcoma tumoroid)
Experimental: as §1

SMILES	differential drug sensitivity score [1]	differential drug sensitivity score [2]	differential drug sensitivity score [3]	differential drug sensitivity score [4]	differential drug sensitivity score [5]	differential drug sensitivity score [6]	differential drug sensitivity score [7]	differential drug sensitivity score [8]	differential drug sensitivity score [9]	differential drug sensitivity score [10]	differential drug sensitivity score [11]	differential drug sensitivity score [12]	differential drug sensitivity score [13]
CC(C)NC[C@@H](C(=O)N1CCN(c2ncnc3c2[C@H](C)C[C@H]3O)CC1)c1ccc(Cl)cc1 [Ipatasertib]	7.6	6.6	8.9	-0.8	10.2	-3.9	-3.2	-3.2	-0.5	1.3	2	2.4	3.9
CCCC(CCC)C(=O)O [Valproic acid]	-2.5	1.7	-1.3	-2.5	4.4	6.5	-1.9	2.8	-2.5	0.9	-0.9	1.7	8.2
C[C@]1(c2nc3c(C(N)=O)cccc3[nH]2)CCCN1 [Veliparib]	-1.3	5.8	-0.6	-1.3	8.8	5.6	-1.3	4.9	1.2	1.4	-1.2	-1.3	5.1
CN1CCN(CCOc2cc(OC3CCOCC3)c3c(Nc4c(Cl)ccc5c4OCO5)ncnc3c2)CC1 [Saracatinib]	0.3	5.7	-1.5	-0.5	5.6	2.3	4.3	-0.7	-1.7	-2.3	0.9	-2.8	2.9
CC(C)CCN1c2nc(Nc3cc(F)c(O)c(F)c3)ncc2N(C)C(=O)C1C (stereo not given) [BI-D1870]	1.3	5.6	4.1	-2.3	3.1	7.3	-1.7	2.9	2.7	0.6	-0.8	8.6	3
CCc1c2c(nc3ccc(OC(=O)N4CCC(N5CCCCC5)CC4)cc13)-c1cc3c(c(=O)n1C2)COC(=O)[C@]3(O)CC [Irinotecan]	1	31.1	-9.5	-4	23.1	15.8	-5.3	19.6	17.9	14.3	-0.6	9.1	23.1
Nc1ncn([C@H]2C[C@H](O)[C@@H](CO)O2)c(=O)n1 [Decitabine]	0.1	5.7	-7	-1.8	21.4	13.3	2.2	5.8	4.4	5.1	1.7	1.3	6.4
CCN(c1cc(C#CCN2CCOCC2)cc(C(=O)NCc2c(C)cc(C)[nH]c2=O)c1C)[C@H]1CC[C@H](N(C)CCOC)CC1	-1.4	0.2	-1.4	-0.7	2.8	-1.4	-1.2	3.1	-1.4	-1.4	-0.9	-1.4	-1.4
COc1cccc2c1C(=O)c1c(O)c3c(c(O)c1C2=O)C[C@@](O)(C(=O)CO)C[C@@H]3O[C@H]1C[C@H](N)[C@H](O)[C@H](C)O1 [Doxorubicin]	3.1	-0.7	5	4.7	20.9	11	3.1	6.8	12.8	-10.2	10.6	15.7	-3.3
CO[C@@]12[C@H](COC(N)=O)C3=C(C(=O)C(C)=C(N)C3=O)N1C[C@@H]1N[C@@H]12 [Mitomycin]	-1.3	18.4	0.6	-4.7	22.4	15.5	-3.8	14.4	17.3	9.5	1.6	6.6	10.3
C#Cc1cccc(Nc2ncnc3cc(OCCOC)c(OCCOC)cc23)c1 [Erlotinib]	-1.1	-1.1	-1.1	-1.1	-1.1	-1.1	-1.1	-1.1	-1.1	-1.1	-1.1	-1.1	-1.1
Cn1ncnc1[C@H]1c2n[nH]c(=O)c3cc(F)cc(c23)N[C@@H]1c1ccc(F)cc1 [Talazoparib]	-1.8	24.9	0.3	-5.9	28.8	18.1	-2.2	26.5	24.4	25.9	8.2	11.3	21.6
CC(C)(O)CNc1nc(Nc2ccnc(C(F)(F)F)c2)nc(-c2cccc(C(F)(F)F)n2)n1 [Enasidenib]	-1.3	-1.3	-1.3	-1.3	-1.3	-1.3	-1.3	-1.3	-1.3	-1	-1.3	-1.3	-0.7
Cn1cc(-c2cnn3c(N)c(Br)c([C@@H]4CCCNC4)nc23)cn1 [MK-8776]	4.4	8.5	-6.8	-1.5	8.9	6.3	1.1	4.7	-1.8	1.8	7.1	6.8	-2.9
CN(Cc1cnc2nc(N)nc(N)c2n1)c1ccc(C(=O)N[C@@H](CCC(=O)O)C(=O)O)cc1 [Methotrexate]	0	-6.2	-14	-4.9	-0.6	-5.4	-10.4	11.6	4.4	-3.6	-10.9	21.6	-9.9
